Data: ChEMBL document CHEMBL1156920, “Structural analogues of schweinfurthin F: probing the steric, electronic, and hydrophobic properties of the D-ring substructure” (Bioorg Med Chem, 2010)

Experiments:
Type in all cases: functional
[1] = test system: ACHN; assay: Growth inhibition of human ACHN cells
[2] = test system: NCI-H522; assay: Growth inhibition of human NCI-H522 cells
[3] = test system: MCF7; assay: Growth inhibition of human MCF7 cells
[4] = test system: SK-MEL-5; assay: Growth inhibition of human SK-MEL-5 cells
[5] = test system: UO-31; assay: Growth inhibition of human UO31 cells
[6] = test system: Malme-3M; assay: Growth inhibition of human MALME-3M cells
[7] = test system: RXF 393; assay: Growth inhibition of human RXF393 cells
[8] = test system: A549; assay: Growth inhibition of human A549 cells
[9] = test system: SF-539; assay: Growth inhibition of human SF539 cells
[10] = test system: HL-60(TB); assay: Growth inhibition of human HL-60(TB) cells
[11] = test system: NCI/ADR-RES; assay: Growth inhibition of human NCI/ADR-RES cells
[12] = Growth inhibition of human […] cells
[13] = test system: HCT-15; assay: Growth inhibition of human HCT15 cells
[14] = test system: MDA-MB-231; assay: Growth inhibition of human MDA-MB-231 cells
[15] = test system: DU-145; assay: Growth inhibition of human DU145 cells
[16] = test system: EKVX; assay: Growth inhibition of human EKVX cells
[17] = test system: U-251; assay: Growth inhibition of human U251 cells
[18] = test system: HOP-92; assay: Growth inhibition of human HOP92 cells
[19] = test system: SN12C; assay: Growth inhibition of human SN12C cells
[20] = test system: LOX IMVI; assay: Growth inhibition of human LOXIMVI cells
[21] = test system: OVCAR-4; assay: Growth inhibition of human OVCAR4 cells
[22] = test system: 786-0; assay: Growth inhibition of human 786-0 cells
[23] = test system: TK-10; assay: Growth inhibition of human TK10 cells
[24] = test system: HCC 2998; assay: Growth inhibition of human HCC2998 cells
[25] = test system: T47D; assay: Growth inhibition of human T47D cells
[26] = test system: KM12; assay: Growth inhibition of human KM12 cells
[27] = test system: BT-549; assay: Growth inhibition of human BT549 cells
[28] = test system: SNB-19; assay: Growth inhibition of human SNB19 cells
[29] = test system: SK-OV-3; assay: Growth inhibition of human SKOV3 cells
[30] = test system: HCT-116; assay: Growth inhibition of human HCT116 cells
[31] = test system: NCI-H322M; assay: Growth inhibition of human NCI-H322M cells
[32] = test system: HOP-62; assay: Growth inhibition of human HOP62 cells
[33] = test system: A498; assay: Growth inhibition of human A498 cells
[34] = test system: SR; assay: Growth inhibition of human SR cells
[35] = test system: PC-3; assay: Growth inhibition of human PC3 cells
[36] = test system: COLO 205; assay: Growth inhibition of human COLO205 cells
[37] = Cytotoxicity against human NCI60 cells
[38] = test system: CAKI-1; assay: Growth inhibition of human Caki1 cells
[39] = test system: M14; assay: Growth inhibition of human M14 cells
[40] = test system: NCI-H226; assay: Growth inhibition of human NCI-H226 cells
[41] = test system: MDA-MB-468; assay: Growth inhibition of human MDA-MB-468 cells
[42] = test system: CCRF-CEM; assay: Growth inhibition of human CCRF-CEM cells
[43] = test system: UACC-257; assay: Growth inhibition of human UACC257 cells
[44] = read-out: pLC50 (the source's name) (converted)

SMILES: COc1cc(/C=C/c2cc(O)c(CCC(C)C)c(O)c2)cc2c1O[C@]1(C)CC[C@@H](O)C(C)(C)[C@H]1C2
- GI50 [1]: 309 nM
- CC50 [1, 44]: 43.7 µM
- TGI ([1]; read-out: pTGI (converted)): 15.8 µM
- GI50 [2]: 1320 nM
- LC50 (50% lethal concentration) [2]: > 100 µM
- TGI ([2]; read-out: pTGI (converted)): 24 µM
- GI50 [3]: 42.7 nM
- CC50 [3, 44]: > 100 µM
- TGI ([3]; read-out: pTGI (converted)): 2400 nM
- GI50 [4]: 83.2 nM
- LC50 [4]: 4.47 µM
- TGI ([4]; read-out: pTGI (converted)): 1510 nM
- GI50 [5]: 46.8 nM
- CC50 [5, 44]: 74.1 µM
- TGI ([5]; read-out: pTGI (converted)): 2400 nM
- GI50 [6]: 1410 nM
- LC50 [6]: 63.1 µM
- TGI ([6]; read-out: pTGI (converted)): 12.3 µM
- GI50 [7]: 10 nM
- CC50 [7, 44]: 8.32 µM
- TGI ([7]; read-out: pTGI (converted)): 89.1 nM
- GI50 [8]: 166 nM
- LC50 (50% lethal concentration) [8]: > 100 µM
- TGI ([8]; read-out: pTGI (converted)): 17.4 µM
- GI50 [9]: 28.8 nM
- LC50 [9]: 2690 nM
- TGI ([9]; read-out: pTGI (converted)): 295 nM
- GI50 [10]: 251 nM
- CC50 [10, 44]: > 100 µM
- TGI ([10]; read-out: pTGI (converted)): 38.9 µM
- GI50 [11]: 2340 nM
- CC50 [11, 44]: > 100 µM
- TGI ([11]; read-out: pTGI (converted)): 47.9 µM
- GI50 [12]: 17.4 nM
- LC50 [12]: > 100 µM
- GI50 [13]: 182 nM
- LC50 [13]: 26.3 µM
- TGI ([13]; read-out: pTGI (converted)): 2880 nM
- GI50 [14]: 1740 nM
- LC50 [14]: 39.8 µM
- TGI ([14]; read-out: pTGI (converted)): 11 µM
- GI50 [15]: 240 nM
- LC50 [15]: 37.2 µM
- TGI ([15]; read-out: pTGI (converted)): 14.1 µM
- GI50 [16]: 447 nM
- LC50 [16]: > 100 µM
- TGI ([16]; read-out: pTGI (converted)): 17.4 µM
- GI50 [17]: 63.1 nM
- LC50 [17]: 37.2 µM
- TGI ([17]; read-out: pTGI (converted)): 12.9 µM
- GI50 [18]: 1510 nM
- LC50 [18]: > 100 µM
- TGI ([18]; read-out: pTGI (converted)): 24 µM
- GI50 [19]: 741 nM
- LC50 [19]: > 100 µM
- TGI ([19]; read-out: pTGI (converted)): 36.3 µM
- GI50 [20]: 70.8 nM
- LC50 [20]: 5.89 µM
- TGI ([20]; read-out: pTGI (converted)): 1780 nM
- GI50 [21]: 1410 nM
- CC50 [21, 44]: > 100 µM
- TGI ([21]; read-out: pTGI (converted)): 38 µM
- GI50 [22]: 10.2 nM
- LC50 [22]: 2880 nM
- TGI ([22]; read-out: pTGI (converted)): 53.7 nM
- GI50 [23]: 6.31 µM
- LC50 [23]: 74.1 µM
- TGI ([23]; read-out: pTGI (converted)): 25.1 µM
- GI50 [24]: 794 nM
- LC50 [24]: 38 µM
- TGI ([24]; read-out: pTGI (converted)): 10.5 µM
- GI50 [25]: 2040 nM
- CC50 [25, 44]: > 100 µM
- GI50 [26]: 275 nM
- LC50 [26]: 28.8 µM
- TGI ([26]; read-out: pTGI (converted)): 5.25 µM
- GI50 [27]: 363 nM
- CC50 [27, 44]: > 100 µM
- TGI ([27]; read-out: pTGI (converted)): 28.8 µM
- GI50 [28]: 372 nM
- GI50 [29]: 11.5 µM
- LC50 [29]: > 100 µM
- TGI ([29]; read-out: pTGI (converted)): 97.7 µM
- GI50 [30]: 46.8 nM
- CC50 [30, 44]: 47.9 µM
- TGI ([30]; read-out: pTGI (converted)): 8.13 µM
- GI50 [31]: 933 nM
- TGI ([31]; read-out: pTGI (converted)): 28.8 µM
- GI50 [32]: 51.3 nM
- LC50 [32]: 13.8 µM
- TGI ([32]; read-out: pTGI (converted)): 603 nM
- GI50 [33]: 158 nM
- LC50 [33]: 36.3 µM
- TGI ([33]; read-out: pTGI (converted)): 6.31 µM
- GI50 [34]: 89.1 nM
- LC50 [34]: > 100 µM
- TGI ([34]; read-out: pTGI (converted)): 10.5 µM
- GI50 [35]: 178 nM
- CC50 [35, 44]: > 100 µM
- TGI ([35]; read-out: pTGI (converted)): 32.4 µM
- GI50 [36]: 891 nM
- LC50 [36]: > 100 µM
- TGI ([36]; read-out: pTGI (converted)): 12.3 µM
- GI50 [37]: 290 nM
- GI50 [38]: 70.8 nM
- LC50 [38]: > 100 µM
- TGI ([38]; read-out: pTGI (converted)): 17.8 µM
- GI50 [39]: 245 nM
- CC50 [39, 44]: 30.9 µM
- TGI ([39]; read-out: pTGI (converted)): 240 nM
- GI50 [40]: 692 nM
- LC50 [40]: > 100 µM
- TGI ([40]; read-out: pTGI (converted)): 3.55 µM
- GI50 [41]: 851 nM
- LC50 [41]: 57.5 µM
- TGI ([41]; read-out: pTGI (converted)): 4.37 µM
- GI50 [42]: 148 nM
- CC50 [42, 44]: > 100 µM
- TGI ([42]; read-out: pTGI (converted)): 18.6 µM
- GI50 [43]: 3.39 µM
- LC50 [43]: 64.6 µM
- TGI ([43]; read-out: pTGI (converted)): 21.9 µM
